Several values for one entry are separate records, joined by “and”; a condition that tells them apart may be missing. Identical values can stand only once.
Legend:
[1] = biological target: T1, 14-3-3β/CFTRpS753pS768 complex (Homo sapiens, UniProt P13569+P31946); experiment: FP assay, 14-3-3β titration at constant compound concentration (apparent KD); format: binding
T1 construct: His6 (cleaved yes); made in house; peptide synthetic
Experimental: FC-A (100 µM) was added as a positive control and DMSO as the negative control. […] Background polarization was subtracted from all values, n = 3 technical replicates. […] Source data are provided as a Source Data file. […]
The FITC-labeled peptides were dissolved in FP buffer (10 mM HEPES pH 7.4, 150 mM NaCl, 0.1% Tween20, 1 mg/mL BSA) to a final concentration of 100 nM or 10 nM. […] The dilution series were made in 384 Corning Black Round Bottom well plates and their polarization was measured with a Tecan Infinite F500 plate reader (ex. = 485 nm, em. = 535 nm). The method of fitting of the curves was: “log(agonist) vs. response – Variable slope (four parameters)” from GraphPad Prism. The equation is Y = Bottom + (Top-Bottom)/(1 + 10^((LogEC50-X)*HillSlope)).
from the hit validation library.
f the compound, 100 µM FC-A, or both compound and FC-A, 100 µM each. Background polarization was subtracted f
rom all values, n=3 technical replicates.
Source data are provided as a Source Data file.

[2] = biological target: T1, 14-3-3β/CFTRpS753pS768 complex; experiment: Dose-response fluorescence polarization (FP) assay, compound titration; format: binding; settings: for EC50: 14-3-3β 10 μM, labeled CFTRpS753pS768 100 nM, read-out: EC50; for FP signal: With 14-3-3
Outline: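 Compounds were titrated in two-fold dilutions against 10 μM 14-3-3β and FITC-CFTR pS753pS768 peptide (100 nM or 10 nM). Buffer: 10 mM HEPES pH 7.4, 150 mM NaCl, 0.1% Tween20, 1 mg/mL BSA. Polarization was read at ex 485/em 535 nm, and EC50 was derived from a four-parameter variable-slope fit.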

[3] = CY compound (100 μM), 14-3-3β concentration 1.5625e-5 M
[4] = CY compound (100 μM), 14-3-3β concentration 3.125e-5 M
[5] = CY compound (100 μM), 14-3-3β concentration 6.25e-5 M
[6] = CY compound (100 μM), 14-3-3β concentration 0.000125 M
[7] = CY compound (100 μM), 14-3-3β concentration 0.00025 M
[8] = CY compound (100 μM), 14-3-3β concentration 0.0005 M
[9] = FC-A + CY compound, 14-3-3β concentration 1.5625e-5 M
[10] = FC-A + CY compound, 14-3-3β concentration 3.125e-5 M
[11] = FC-A + CY compound, 14-3-3β concentration 6.25e-5 M
[12] = FC-A + CY compound, 14-3-3β concentration 0.000125 M
[13] = FC-A + CY compound, 14-3-3β concentration 0.00025 M
[14] = FC-A + CY compound, 14-3-3β concentration 0.0005 M

T1 sequence (P31946 whole entry): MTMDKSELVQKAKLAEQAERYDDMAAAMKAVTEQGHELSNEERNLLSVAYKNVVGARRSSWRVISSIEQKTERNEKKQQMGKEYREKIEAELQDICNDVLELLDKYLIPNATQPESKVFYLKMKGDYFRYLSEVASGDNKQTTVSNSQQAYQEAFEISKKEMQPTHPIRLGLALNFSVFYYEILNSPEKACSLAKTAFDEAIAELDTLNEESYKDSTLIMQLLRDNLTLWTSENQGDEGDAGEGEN
T1 sequence (P13569 747-774 limits assumed): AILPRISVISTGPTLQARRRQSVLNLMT

In the case of N=C(N)NCCCC1NCc2ccccc2Sc2ccccc2CNC(=O)C(Cc2ccc(O)cc2)NC(=O)C(CCCN)NC1=O (stereo not shown) [CY007424], the “stabilization factor (increase of apparent affinity of CFTR peptide to 14-3-3)” value ([1]; 100 μM compound, vs […] μM without compound) is reported as “more than 300 x”, the EC50 [2] is reported as 36.1 µM and 36 µM and the FP signal ([2]; compound 476.8 pM) is reported as 4. It also gave an FP signal ([2]; compound 953.7 pM) of 5, an FP signal ([2]; compound 1.90735e-9 M) of 5 and an FP signal ([2]; compound 3.8147e-9 M) of 7. The FP signal ([2]; compound 7.6294e-9 M) was 4, the FP signal ([2]; compound 1.52588e-8 M) was 7 and the FP signal ([2]; compound 3.05176e-8 M) was 6. For the same molecule, the FP signal ([2]; compound 6.10352e-8 M) was 5, the FP signal ([2]; compound 1.2207e-7 M) was 5 and the FP signal ([2]; compound 2.44141e-7 M) was 7. It also gave an FP signal ([2]; compound 4.88281e-7 M) of 7, an FP signal ([2]; compound 9.76563e-7 M) of 7 and an FP signal ([2]; compound 1.95313e-6 M) of 6. For the same molecule, the FP signal ([2]; compound 3.90625e-6 M) was 12, the FP signal ([2]; compound 7.8125e-6 M) was 27 and the FP signal ([2]; compound 1.5625e-5 M) was 52. It also gave an FP signal ([2]; compound 3.125e-5 M) of 122, an FP signal ([2]; compound 6.25e-5 M) of 193 and an FP signal ([2]; compound 0.000125 M) of 244. It also gave an FP signal ([2]; compound 0.00025 M) of 263, an FP signal ([2]; compound 0.0005 M) of 257 and an FP signal ([2]; compound 0.001 M) of 271.
With N=C(N)NCCCC1NC(=O)C(CCC(N)=O)NC(=O)C(CCCNC(=N)N)NC(=O)C2CCCN2Cc2cccc(c2)-c2ccccc2CNC1=O (stereo not shown) [CY007455] the “Fluorescence polarization signal, 14-3-3β titration” value (from here on “Fluorescence polarization signal”) ([1]; CY compound (100 μM), 14-3-3β concentration 119.2 pM) was 1.333, the “Fluorescence polarization signal” value ([1]; CY compound (100 μM), 14-3-3β concentration 4.88281e-7 M) was 8.333 and 7.333 and the “Fluorescence polarization signal” value ([1]; CY compound (100 μM), 14-3-3β concentration 9.76563e-7 M) was 12.3333 and 8.333 and 11.3333. For the same molecule, the “Fluorescence polarization signal” value ([1]; CY compound (100 μM), 14-3-3β concentration 1.95313e-6 M) was 20.3333 and 17.3333 and 14.3333, the “Fluorescence polarization signal” value ([1]; CY compound (100 μM), 14-3-3β concentration 3.90625e-6 M) was 27.3333 and 24.3333 and 22.3333 and the “Fluorescence polarization signal” value ([1]; CY compound (100 μM), 14-3-3β concentration 7.8125e-6 M) was 38.3333 and 32.3333 and 35.3333. The “Fluorescence polarization signal” value [1, 3] was 51.3333 and 50.3333 and 48.3333, the “Fluorescence polarization signal” value [1, 4] was 68.3333 and 69.3333 and 65.3333 and the “Fluorescence polarization signal” value [1, 5] was 92.3333 and 88.3333 and 91.3333. For the same molecule, the “Fluorescence polarization signal” value [1, 6] was 110.333 and 109.333, the “Fluorescence polarization signal” value [1, 7] was 128.333 and 124.333 and 127.333 and the “Fluorescence polarization signal” value [1, 8] was 152.333 and 149.333. For the same molecule, the “Fluorescence polarization signal” value ([1]; FC-A + CY compound, 14-3-3β concentration 119.2 pM) was 2 and 1, the “Fluorescence polarization signal” value ([1]; FC-A + CY compound, 14-3-3β concentration 6.10352e-8 M) was 5 and 6 and 9 and the “Fluorescence polarization signal” value ([1]; FC-A + CY compound, 14-3-3β concentration 1.2207e-7 M) was 9 and 7. For the same molecule, the “Fluorescence polarization signal” value ([1]; FC-A + CY compound, 14-3-3β concentration 2.44141e-7 M) was 10 and 13 and 15, the “Fluorescence polarization signal” value ([1]; FC-A + CY compound, 14-3-3β concentration 4.88281e-7 M) was 23 and 24 and 20 and the “Fluorescence polarization signal” value ([1]; FC-A + CY compound, 14-3-3β concentration 9.76563e-7 M) was 41 and 39 and 35. For the same molecule, the “Fluorescence polarization signal” value ([1]; FC-A + CY compound, 14-3-3β concentration 1.95313e-6 M) was 58 and 54 and 52, the “Fluorescence polarization signal” value ([1]; FC-A + CY compound, 14-3-3β concentration 3.90625e-6 M) was 74 and 73 and 71 and the “Fluorescence polarization signal” value ([1]; FC-A + CY compound, 14-3-3β concentration 7.8125e-6 M) was 91 and 96 and 92. For the same molecule, the “Fluorescence polarization signal” value [1, 9] was 115 and 114, the “Fluorescence polarization signal” value [1, 10] was 128 and 129 and 126 and the “Fluorescence polarization signal” value [1, 11] was 141 and 144. For the same molecule, the “Fluorescence polarization signal” value [1, 12] was 157 and 153 and 158, the “Fluorescence polarization signal” value [1, 13] was 160 and 164 and the “Fluorescence polarization signal” value [1, 14] was 175 and 174. The EC50 [2] was 170 µM, the FP signal ([2]; compound 476.8 pM) was 5 and the FP signal ([2]; compound 953.7 pM) was 6. The FP signal ([2]; compound 1.90735e-9 M) was 3, the FP signal ([2]; compound 3.8147e-9 M) was 4 and the FP signal ([2]; compound 7.6294e-9 M) was 5. For the same molecule, the FP signal ([2]; compound 1.52588e-8 M) was 4, the FP signal ([2]; compound 3.05176e-8 M) was 4 and the FP signal ([2]; compound 6.10352e-8 M) was 5. For the same molecule, the FP signal ([2]; compound 1.2207e-7 M) was 7, the FP signal ([2]; compound 2.44141e-7 M) was 6 and the FP signal ([2]; compound 4.88281e-7 M) was 4. It also gave an FP signal ([2]; compound 9.76563e-7 M) of 4, an FP signal ([2]; compound 1.95313e-6 M) of 5 and an FP signal ([2]; compound 3.90625e-6 M) of 9. For the same molecule, the FP signal ([2]; compound 7.8125e-6 M) was 8, the FP signal ([2]; compound 1.5625e-5 M) was 15 and the FP signal ([2]; compound 3.125e-5 M) was 26. For the same molecule, the FP signal ([2]; compound 6.25e-5 M) was 53, the FP signal ([2]; compound 0.000125 M) was 107 and the FP signal ([2]; compound 0.00025 M) was 170. The FP signal ([2]; compound 0.0005 M) was 209 and the FP signal ([2]; compound 0.001 M) was 244.
For N=C(N)NCCCC1NC(=O)C(CCC(N)=O)NC(=O)C(CCCNC(=N)N)NC(=O)C2CCCN2Cc2cccc(c2)-c2ccccc2CNC1=O (stereo not shown) [CY007458], the “Fluorescence polarization signal” value [1, 3] was 76.6667, the “Fluorescence polarization signal” value [1, 4] was 83.6667 and 85.6667 and the “Fluorescence polarization signal” value [1, 5] was 102.667 and 98.6667 and 101.667. The “Fluorescence polarization signal” value [1, 6] was 115.667 and 111.667 and 118.667, the “Fluorescence polarization signal” value [1, 7] was 131.667 and 136.667 and 132.667 and the “Fluorescence polarization signal” value [1, 8] was 153.667 and 151.667 and 152.667. The “Fluorescence polarization signal” value [1, 9] was 140.333 and 143.333 and 144.333, the “Fluorescence polarization signal” value [1, 10] was 147.333 and 148.333 and 150.333 and the “Fluorescence polarization signal” value [1, 11] was 156.333. The “Fluorescence polarization signal” value [1, 12] was 159.333 and 161.333 and 160.333, the “Fluorescence polarization signal” value [1, 13] was 164.333 and 167.333 and the “Fluorescence polarization signal” value [1, 14] was 175.333 and 176.333 and 172.333. For the same molecule, the EC50 [2] was 151 µM, the FP signal ([2]; compound 476.8 pM) was 6 and the FP signal ([2]; compound 953.7 pM) was 5. It also gave an FP signal ([2]; compound 1.90735e-9 M) of 4, an FP signal ([2]; compound 3.8147e-9 M) of 5 and an FP signal ([2]; compound 7.6294e-9 M) of 7. The FP signal ([2]; compound 1.52588e-8 M) was 4, the FP signal ([2]; compound 3.05176e-8 M) was 6 and the FP signal ([2]; compound 6.10352e-8 M) was 5. It also gave an FP signal ([2]; compound 1.2207e-7 M) of 4, an FP signal ([2]; compound 2.44141e-7 M) of 5 and an FP signal ([2]; compound 4.88281e-7 M) of 6. It also gave an FP signal ([2]; compound 9.76563e-7 M) of 6, an FP signal ([2]; compound 1.95313e-6 M) of 5 and an FP signal ([2]; compound 3.90625e-6 M) of 8. It also gave an FP signal ([2]; compound 7.8125e-6 M) of 11, an FP signal ([2]; compound 1.5625e-5 M) of 15 and an FP signal ([2]; compound 3.125e-5 M) of 33. It also gave an FP signal ([2]; compound 6.25e-5 M) of 65, an FP signal ([2]; compound 0.000125 M) of 124 and an FP signal ([2]; compound 0.00025 M) of 179. It also gave an FP signal ([2]; compound 0.0005 M) of 221 and an FP signal ([2]; compound 0.001 M) of 252.

— article PMC9226124, “Macrocycle-stabilization of its interaction with 14-3-3 increases plasma membrane localization and activity of CFTR” (Nature Communications, 2022)
